The source of these data is patent US20180369203A1, “METHODS OF TREATING CANCER BY ADMINISTERING A MEK INHIBITOR IN COMBINATION WITH A PROTEASOME INHIBITOR” (The Jackson Laboratory, priority 2015, published 2018).

Where two headings read alike, the source gives them in different places. Peptide text beside a SMILES is read from it. * marks the point of attachment. Cbz = O=C(OCc1ccccc1)*

In experiment [1] the test system is V5-TOR1AIP2, V5-RPL3, V5-RPL15. The experiment in a line: Levels and ubiquitination of V5-tagged proteins in HEK293T cells. The class given is cell-based. As to conditions: 500 nM MG132 co-treated with 20 nM AZD6244, 8 hr.
A further experiment relates to c-MYC, RPL15, RPL3. The experiment in a line: Endogenous c-MYC, RPL15 and RPL3 proteins in A2058 cells. The class given is cell-based, human. The following applies: 20 nM AZD6244 co-treated with 500 nM MG132. On the procedure:
(A) GFP and GFP-GR plasmids were co-transfected into HEK293T cells followed by treatments with 20 nM AZD6244, 20 μM U0126, or 200 nM 17-DMAG for 4 hr. (B) GFP-GR plasmids were co-transfected into HEK293T cells with HA-Ub-K48 plasmids, which encode a mutant ubiquitin that can be conjugated to protein substrates only via lysine 48. Following treatments with 20 nM AZD6244 or 200 nM 17-DMAG for 4 hr, GFP-GR proteins were precipitated and ubiquitination was detected using anti-HA antibodies. (C) Denatured firefly luciferases were incubated with lysates of A2058 cells treated with DMSO or 20 nM AZD6244 (mean±SD, n=4, ANOVA). (D) A2058 cells were treated with 20 nM AZD6244, and ubiquitinated proteins were detected in both detergent-soluble and -insoluble fractions using Lys48-specific ubiquitin antibodies. (E) A2058 cells stably expressing LacZ or HSF1^S326D were treated with 20 nM AZD6244 for 8 hr. (F) C57BL/6J mice were i.p. injected with DMSO or AZD6244 three times a week for 2 weeks. S: spleen; K: kidney; L: liver. (G) Experimental procedures of MS-based quantitation of ubiquitinated peptides, two technical replicates per treatment. […] (Q) Endogenous RPL15 and RPL3 proteins were detected in A2058 cells treated with 20 nM AZD6244 alone or co-treated with 500 nM MG132. (R) Endogenous RPL15 and RPL3 proteins were detected in A2058 cells stably expressing LacZ or HSF1^S326D with AZD6244 treatment. […]

In another experiment the target is MEK1 (Homo sapiens, UniProt Q02750). The following applies: 100 ng GST-MEK1, 400 ng His-HSF1, RT. The method, then:
(§1) Co-expressed GFP proteins served as internal controls. […] See also FIG. 10.
(§2) Samples were boiled for 5 min to stop reactions.

Experiment [2] deals with ERK complexes precipitated from HEK293T cells. Kind of experiment: In vitro kinase assay with immunoprecipitated ERK complexes. The class given is biochemical. The method, then: as §1, §2
In another experiment the test system is Hsp genes. The experiment in a line: qRT-PCR of heat-shock-induced Hsp mRNA in NIH3T3 cells. The class given is cell-based, mouse. The following applies: 20 μM U0126 or 20 nM AZD6244 for 3 hr, then HS and 4-hr recovery. The method, then: (A) NIH3T3 cells were treated with HS at 43° C. for 30 min, 10 μM tubastatin A for 5 hr, 40 μM VER155008 for 1 hr, 500 nM MG132 for 1 hr, 200 nM 17-DMAG for 1 hr, and 2.5 mM azetidine for 15 min (B) The dual ELK1 reporter system, comprising a serum response element (SRE)-driven secreted embryonic alkaline phosphatase (SEAP) plasmid and a CMV-driven Gaussia luciferase (GLuc) plasmid, was transfected into HEK293T cells. After 24 hr, cells were treatments as in (A) and recovered overnight before measuring reporter activities (mean±SD, n=6, ANOVA). (C and D) NIH3T3 cells were treated with 20 μM U0126 or 20 nM AZD6244 for 3 hr followed by HS and 4-hr recovery. mRNA levels were quantitated by qRT-PCR (mean±SD, n=3, Student's t-test). (E) Immediately after HS, nuclear proteins of NIH3T3 cells treated as in (C) were extracted to measure HSF1-DNA binding by an ELISA-based assay (mean±SD, n=3, ANOVA). […]
Total RNAs were extracted using RNA STAT-60 reagent (Tel-Test, Inc.), and RNAs were used for reverse transcription using a Verso cDNA Synthesis kit (Thermo Fisher Scientific). Equal amounts of cDNA were used for quantitative PCR reaction using a DyNAmo SYBR Green qPCR kit (Thermo Fisher Scientific). Signals were detected by an ABI 7500 Real-Time PCR System (Applied Biosystems). […]

The subject of experiment [3] is HSF1 Ser326. The following applies: NIH3T3; 20 μM U0126 for 3 hrs, then heat shock 43° C. 30 mins.
Description: NIH3T3 cells were treated with 20 μM U0126 for 3 hrs followed by heat shock at 43° C. for 30 mins HSF1 Ser326 phosphorylation was detected by immunoblotting.
Whole-cell protein extracts were prepared in cold cell-lysis buffer (100 mM NaCl, 30 mM Tris-HCl pH 7.6, 1% Triton X-100, 30 mM NaF, 1 mM EDTA, 1 mM sodium orthovanadate, and Halt™ protease inhibitor cocktail from Thermo Scientific). Proteins were separated on SDS-PAGE gels and transferred to nitrocellulose membranes. Primary antibodies were applied in wash buffer overnight at 4° C. Peroxidase-conjugated secondary antibodies were applied at room temperature for 1 hr, and signals were visualized by SuperSignal West chemiluminescent substrate (Thermo Fisher Scientific), followed by exposure to films.
The subject of experiment [4] is HSF1 Ser326. Kind of experiment: HSF1 Ser326 phosphorylation by immunoblotting in HEK293T cells. The class given is cell-based. As to conditions: overnight, 20 μM U0126, 20 nM AZD6244, 1 μM FR180204 or 100 nM Sch772984. The method, then:
This figure is related to FIG. 3. (A) Validation of phospho-HSF1 Ser326 antibodies. […] (B) MEK blockade impairs HSF1 Ser326 phosphorylation. […] (D-E) S326A mutation impairs HSF1 nuclear translocation. […] (F) Acute MEK depletion diminishes HSF1 proteins. […] HSF1 proteins were detected by immunoblotting. (G) ERK-mediated HSF1 Ser307 phosphorylation depends on MEK. […] Levels of phosphor-HSF1 Ser307 were measured by immunoblotting. (H) HSF1 Ser326 phosphorylation inhibits Ser307 phosphorylation.
In general terms: In western blotting, separated proteins are transferred to a membrane and probed.

The subject of experiment [5] is HSF1. Kind of experiment: ELISA-based HSF1-DNA binding assay, NIH3T3 nuclear proteins. The class given is cell-based, mouse. As to conditions: NIH3T3, immediately after HS; 20 μM U0126 or 20 nM AZD6244 for 3 hr. The method, then: (§3) (A) NIH3T3 cells were treated with HS at 43° C. for 30 min, 10 μM tubastatin A for 5 hr, 40 μM VER155008 for 1 hr, 500 nM MG132 for 1 hr, 200 nM 17-DMAG for 1 hr, and 2.5 mM azetidine for 15 min (B) The dual ELK1 reporter system, comprising a serum response element (SRE)-driven secreted embryonic alkaline phosphatase (SEAP) plasmid and a CMV-driven Gaussia luciferase (GLuc) plasmid, was transfected into HEK293T cells. After 24 hr, cells were treatments as in (A) and recovered overnight before measuring reporter activities (mean±SD, n=6, ANOVA). (C and D) NIH3T3 cells were treated with 20 μM U0126 or 20 nM AZD6244 for 3 hr followed by HS and 4-hr recovery. mRNA levels were quantitated by qRT-PCR (mean±SD, n=3, Student's t-test). (E) Immediately after HS, nuclear proteins of NIH3T3 cells treated as in (C) were extracted to measure HSF1-DNA binding by an ELISA-based assay (mean±SD, n=3, ANOVA). (F) HEK293T cells were transfected with dual HSF1 reporter plasmids, a heat-shock element (HSE)-driven SEAP plasmid and a CMV-GLuc plasmid. […] (G) HEK293T cells were treated with different inhibitors overnight. […] After 24 hr, cells were heat shocked at 43° C. for 30 min followed by overnight recovery (mean±SD, n=3, ANOVA). (L)-(O) HEK293T cells were transfected with siRNAs for 48 hr followed by transfection with dual HSF1 reporter plasmids for 24 hr before HS (mean±SD, n=6, ANOVA). […]

Experiment [6] deals with HSF1. The experiment in a line: Dual HSF1 reporter assay (HSE-SEAP / CMV-GLuc) in HEK293T cells. The following applies: 20 μM U0126, 20 nM AZD6244, 1 μM FR180204 or 100 nM Sch772984. The class given is cell-based. On the procedure:
as §3, with “ANOVA).” for “ANOVA). (L)-(O) HEK293T cells were transfected with siRNAs for 48 hr followed by transfection with dual HSF1 reporter plasmids for 24 hr before HS (mean±SD, n=6, ANOVA).”
FIGS. 8A-H illustrate that MEK and ERK inversely regulate the PSR. […] Cell viability was measured by a Guava EasyCyte™ flow cytometer using Guava ViaCount™ reagents (mean±SD, n=5, Student's t test). […] Levels of ERK1 and ERK2 mRNAs were quantitated in HEK293T cells transfected with ERK1-targeting siRNAs by qRT-PCR (mean±SD, n=3, ANOVA). […] Levels of ERK2 and ERK1 mRNAs were quantitated in HEK293T cells transfected with ERK2-targeting siRNAs by qRT-PCR (mean±SD, n=3, ANOVA).
Plasmids were transfected with TurboFect transfection reagent (Thermo Scientific). SEAP and luciferase activities in culture supernatants were quantitated using a Ziva® Ultra SEAP Plus Detection Kit (Jaden BioScience) and a Gaussia Luciferase Glow Assay Kit (Thermo Scientific), respectively. Luminescence signals were measured by a VICTORS Multilabel plate reader (PerkinElmer).
Background: In a reporter assay the amount or activity of a reporter protein is the signal.

MEK1, sequence (Q02750 whole entry): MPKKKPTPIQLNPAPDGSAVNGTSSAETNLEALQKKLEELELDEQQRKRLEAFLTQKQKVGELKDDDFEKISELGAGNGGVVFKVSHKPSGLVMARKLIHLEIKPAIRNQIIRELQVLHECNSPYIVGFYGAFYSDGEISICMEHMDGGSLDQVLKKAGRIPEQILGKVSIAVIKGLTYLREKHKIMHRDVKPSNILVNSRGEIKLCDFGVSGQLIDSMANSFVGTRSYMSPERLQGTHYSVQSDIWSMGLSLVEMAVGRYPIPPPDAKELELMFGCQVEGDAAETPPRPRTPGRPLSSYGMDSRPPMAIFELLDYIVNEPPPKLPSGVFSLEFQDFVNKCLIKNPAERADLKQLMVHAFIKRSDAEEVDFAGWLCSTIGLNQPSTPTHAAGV

For `CC(C)C[C@@H](C=O)NC(=O)[C@H](CC(C)C)NC(=O)[C@H](CC(C)C)NC(=O)OCc1ccccc1` [MG132] (Cbz-Leu-Leu-Leu-aldehyde), the “V5-RPL15 depletion by AZD6244” value in [1] is reported as “prevented”. For the same compound, in the experiment on c-MYC, RPL15, RPL3, the “depletions of endogenous RPL15 and RPL3 by AZD6244” value was “prevented”.
On to `N#CC(=C(/N)Sc1ccccc1N)/C(C#N)=C(\N)Sc1ccccc1N` [U0126], for which the “HSF1 Ser326 phosphorylation by recombinant MEK1” value on MEK1 is on record as “blocked”. The “phosphorylation of recombinant ERK1 proteins by precipitated ERK complexes” value in experiment [2] (400 ng GST-ERK1) is “blocked”. Moreover, the “HSF1 Ser326 phosphorylation by precipitated ERK complexes” value in [2] (400 ng His-HSF1) is listed as “blocked”. For the same compound, the “HS-induced transcription of Hsp genes” value in the experiment with Hsp genes is recorded as “impeded”. For the same compound, the “HSF1 Ser326 phosphorylation” value in the experiment on HSF1 Ser326 [3] is reported as “impaired”; with HSF1 Ser326 [4], “impairs”. The “DNA-binding capacity of HSF1” value in the experiment with HSF1 [5] is listed as “impaired”. Further, the “transcriptional activation of HSF1” value with HSF1 [6] is “impaired”.
